Experimental data from patent US20090074766A1, “Methods of inhibiting HIV-2 infection” (priority 2007, published 2009).
Read-outs that look alike come from different tables or passages of the source.

B1: PRO 140: humanized IgG4,κ anti-CCR5 monoclonal antibody, humanized version of murine mAb PA14 (antibody, chains of the INN, looked up, V domains shown)
VH: EVQLVESGGGLVKPGGSLRLSCAASGYTFSNYWIGWVRQAPGKGLEWIGDIYPGGNYIRNNEKFKDKTTLSADTSKNTAYLQMNSLKTEDTAVYYCGSSFGSNYVFAWFTYWGQGTLVTVSS
VL: DIVMTQSPLSLPVTPGEPASISCRSSQRLLSSYGHTYLHWYLQKPGQSPQLLIYEVSNRFSGVPDRFSGSGSGTDFTLKISRVEAEDVGVYYCSQSTHVPLTFGQGTKVEIK

Tests used:
[1] = tested on: HIV-1JR-FL envelope-mediated membrane fusion (HeLa-EnvJRFL and CEM NKR-CCR5 cells); assay: cell-based; design: CI90: unit not given beside the values
Procedure: (§1) The HIV-1 RET assay has been described in detail previously (Litwin et al., 1996). Briefly, fluorescein octadecyl ester (F18; Molecular Probes, Eugene, Oreg.; 5 mg/ml in ethanol), was diluted 1:800 in DMEM labeling medium (DMEM; Invitrogen, Carlsbad, Calif.) with 10% fetal bovine serum (FBS; HyClone, Logan, Utah) and adjusted to an A506 of 0.34±10%. Octadecyl rhodamine B chloride (R18; Molecular Probes; 10 mg/ml in ethanol) was diluted 1:2050 in labeling medium and adjusted to an A565 of 0.52±10%. Both dyes were further diluted 2-fold by addition to cells in T75-cm^2 flasks. HeLa-EnvJRFL and CEM NKR-CCR5 cells were incubated overnight in F18- and R18-containing culture medium, respectively. The following day, medium from HeLa-EnvJRFL cells was removed and 10 ml of 0.5 mM EDTA was added and incubated at 37° C. for 5 min. EDTA was removed and the flask was returned to the incubator for another 5 min followed by striking of the flask to dislodge cells. […] Suspension CEM NKR-CCR5 cells were added directly to a separate 50-ml conical centrifuge tube. Both cell lines were centrifuged at 300×g for 5 min. The supernatant was discarded and cells were resuspended in 10 ml of PBS-/15% FBS. The centrifugation/wash step was repeated twice, after which the cells were counted and concentrations adjusted to 1.5×10^6 cells/ml. Ten μl of each cell type (15,000 cells) were seeded into wells of a 384-well plate. Inhibitor compounds were added immediately thereafter to bring the final well volume to 40 μl, and the plates were incubated for 4 h at 37° C. Compounds were tested individually and in combination at a fixed molar ratio or mass ratio over a range of serial dilutions. The plates were then read on a fluorescence plate reader (Victor^2, Perkin Elmer, Boston, Mass.) using the excitation/emission filter combinations shown in Table 6.
(§2) The “% RET” was calculated according to the following formula after subtraction of background (blank) readings: […]
(§3) The “% Inhibition” was calculated according to the following formula: […]
(§4) Fifty percent inhibition (IC50) values were determined by fitting the inhibition data with a non-linear, four-parameter, variable slope equation (GraphPad Prism, 4.02; GraphPad Software, San Diego, Calif.). Upper and lower inhibition values were constrained to 100% and 0%, respectively for curve fitting.
(§5) For testing, small molecule compounds were solubilized in dimethylsulfoxide (DMSO) to 10 mM and then diluted in DMSO to 200× the final concentration to be utilized in the antiviral assay. Serial dilutions of small molecules were conducted in DMSO. Subsequent dilutions were conducted in medium to achieve a final DMSO concentration in the assay of 0.5%. Peptides and mAbs were diluted in PBS in the absence of DMSO.
(§6) HeLa cells were engineered to express HIV-1 gp120/gp41 from the macrophage-tropic primary isolate JRFL as described (HeLa-EnvJRFL; Litwin et al., 1996). Briefly, the HIV-1LAI Env gene was excised from the plasmid pMA243 (Dragic et al., 1992) and the HIV-1JRFL Env gene was inserted. The HIV-1JRFL Env gene was amplified from the plasmid pUCFL112-1 (Koyanagi et al., 1987). The resulting plasmid, designated JR-FL-pMA243, was sequenced by standard methods and transfected into HeLa cells using lipofectin (Gibco BRL/Invitrogen, Carlsbad, Calif.). HeLa-EnvJRFL transfectants were selected in methotrexate (Sigma, St. Louis, Mo.) and cloned twice by limiting dilution. The transduced human T cell leukemia line CEM NKR-CCR5 cells were obtained from the NIH AIDS Research and Reference Program (Cat. No. 458).
(§7) The HIV-1 RET assay has been described in detail previously (Litwin et al., 1996). Briefly, fluorescein octadecyl ester (F18; Molecular Probes, Eugene, Oreg.; 5 mg/ml in ethanol), was diluted 1:800 in DMEM labeling medium (DMEM; Invitrogen, Carlsbad, Calif.) with 10% fetal bovine serum (FBS; HyClone, Logan, Utah) and adjusted to an A506 of 0.34±10%.

[2] = biological target: HIV-1JR-FL envelope-mediated membrane fusion (HeLa-EnvJRFL and CEM NKR-CCR5 cells) (Homo sapiens, UniProt P51681); assay: cell-based; design: CI90: unit not given beside the values; conditions: for Mean Dose Reduction (2D7) / Mean Dose Reduction (Cpd in combination): 2D7 in combination with the labelled inhibitor, 1:1 molar ratio
Sequence of HIV-1JR-FL envelope-mediated membrane fusion (HeLa-EnvJRFL and CEM NKR-CCR5 cells) (Homo sapiens, UniProt P51681) (P51681 whole entry, the tested form may be a part): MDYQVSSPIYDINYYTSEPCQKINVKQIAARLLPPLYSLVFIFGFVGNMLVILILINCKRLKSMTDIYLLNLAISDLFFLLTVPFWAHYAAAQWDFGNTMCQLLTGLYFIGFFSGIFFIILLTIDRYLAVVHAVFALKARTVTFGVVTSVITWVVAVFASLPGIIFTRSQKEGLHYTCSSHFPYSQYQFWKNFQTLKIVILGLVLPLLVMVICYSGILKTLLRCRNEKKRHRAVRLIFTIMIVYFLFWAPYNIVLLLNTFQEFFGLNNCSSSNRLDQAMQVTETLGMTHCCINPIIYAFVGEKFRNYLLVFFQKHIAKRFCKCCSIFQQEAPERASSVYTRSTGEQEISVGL
Procedure: as §1, §2, §3, §4, §5, §6, §7

[3] = PRO 140 in combination with the labelled inhibitor, 1:1 molar ratio
[4] = labelled 1st inhibitor with 2nd inhibitor PRO 140, equimolar, mean ± SD of 4-12 assays
[5] = molar ratio PRO 140 to labelled inhibitor 1:5
[6] = molar ratio PRO 140 to labelled inhibitor 5:1
[7] = SCH-D (Drug 1) with TAK-779 (Drug 2), molar ratio 1:1
[8] = inhibitor tested individually, experiment depicted in FIG. 11B
[9] = labelled 1st inhibitor with 2nd inhibitor UK-427,857, equimolar
[10] = inhibitor tested individually, experiment depicted in FIG. 11A

| Molecule | Mean Dose Reduction (Cpd in combination) [1, 3] | Mean Dose Reduction (PRO 140) [1, 3] | Mean Dose Reduction (Cpd. in combination) [1, 5] | Mean Dose Reduction (PRO 140) [1, 5] | Mean Dose Reduction (Cpd. in combination) [1, 6] | Mean Dose Reduction (PRO 140) [1, 6] | Mean Dose Reduction (2D7) [2] | Mean Dose Reduction (Cpd in combination) [2] | IC90 [2, 8] [nM] | IC90 [2, 10] [nM] | also measured |
| --- | --- | --- | --- | --- | --- | --- | --- | --- | --- | --- | --- |
| COc1ccnc2[nH]cc(C(=O)C(=O)N3CCN(C(=O)c4ccccc4)C[C@H]3C)c12 [BMS-378806, (R)-N-(benzoyl)-3-methyl-N′-[(4-methoxy-7-azaindol-3-yl)-oxoacetyl]-piperazine] | 2.85 ± 0.76 | 1.64 ± 0.30 | 1.07 ± 0.31 | 3.64 ± 0.73 | 8.88 ± 4.16 | 1.14 ± 0.06 |  |  |  |  | Mean CI (Combination Index at IC50) [1, 3]: 1.21±0.21; Mean Combination Index (at IC50) ([1]; PRO 140 in combination with the labelled inhibitor, molar ratio PRO 140 to inhibitor 1:5): 1.55 ± 0.24; Mean Combination Index (at IC50) ([1]; PRO 140 in combination with the labelled inhibitor, molar ratio PRO 140 to inhibitor 5:1): 1.12 ± 0.10; CI90 [1, 4]: 1.1 ± 0.22 |
| COC[C@@H](c1ccc(C(F)(F)F)cc1)N1CCN(C2(C)CCN(C(=O)c3c(C)ncnc3C)CC2)C[C@@H]1C [SCH-D, 1-[(4,6-dimethyl-5-pyrimidinyl)carbonyl]-4-[4-[2-methoxy-1(R)-4-(trifluoromethyl)phenyl]ethyl-3(S)-methyl-1-piperazinyl]-4-methylpiperidine] | 3.90 ± 0.71 | 4.21 ± 0.96 | 1.73 ± 0.19 | 9.95 ± 2.03 | 8.44 ± 1.27 | 1.92 ± 0.40 | 3.25 ± 0.56 | 4.04 ± 0.78 | 34 |  | Mean CI ± stdev [2, 7]: 1.12±0.32; Mean DR (Drug 1) [2, 7]: 1.48 ± 0.96; CI90 ([2]; SCH-D and UK-427,857 1:1, experiment depicted in FIG. 11B): 0.73; IC90 ([2]; read-out: IC90 of the combination, 1:1 fixed molar ratio combination of SCH-D and UK-427,857, FIG. 11B): 31 nM; IC50 ([1]; 1st inhibitor alone (Table 13)): 3.2 nM; IC90 ([1]; 1st inhibitor alone (Table 13)): 16 nM; CI50 ([1]; labelled 1st inhibitor with 2nd inhibitor TAK-779, equimolar): 1.3 ± 0.18; CI50 [1, 9]: 0.86 ± 0.03; CI90 [1, 9]: 0.75 ± 0.02 |
| Cc1nnc(C(C)C)n1C1CC2CCC(C1)N2CC[C@H](NC(=O)C1CCC(F)(F)CC1)c1ccccc1 (stereo partly drawn) [UK-427,857] | 2.98 ± 0.65 | 4.16 ± 0.41 | 1.58 ± 0.17 | 11.31 ± 2.14 | 7.25 ± 2.19 | 2.00 ± 0.35 |  |  | 59 | 21 | IC90 ([2]; read-out: IC90 of the combination, 1:1 fixed molar ratio combination of PRO 140 and UK-427,857, FIG. 11A): 4.6 nM |
| B1 |  |  |  |  |  |  | 2.54 ± 0.13 | 1.87 ± 0.07 |  | 11 | IC50 [2, 10]: 2.9 nM; CI50 [2, 4]: 0.96 |
